Laboratory results as given in patent publication US9302999B2, “Substituted triazoles as herbicides” (E. I. DU PONT DE NEMOURS AND COMPANY, priority 2012, dated 2016).

What was measured:
Format in all cases: in vivo
Details in all cases: Preemergence, scale 0 to 100
[1] = system: crabgrass, large (large crabgrass, Digitaria sanguinalis); assay: Test E pre-/postemergence: crabgrass, large
Source text: (§1) Seeds of plant species selected from corn (Zea mays), soybean (Glycine max), velvetleaf (Abutilon theophrasti), lambsquarters (Chenopodium album), poinsettia, wild (wild poinsettia, Euphorbia heterophylla), pigweed, palmer (palmer pigweed, Amaranthus palmeri), waterhemp (common waterhemp, Amaranthus rudis), smartweed (ladysthumb smartweed, Polygonum persicaria), surinam grass (Brachiaria decumbens), crabgrass, large (large crabgrass, Digitaria sanguinalis), crabgrass, Brazil (Brazilian crabgrass, Digitaria horizontalis), panicum, fall (fall panicum, Panicum dichotomiflorum), foxtail, giant (giant foxtail, Setaria faberii), foxtail, green (green foxtail, Setaria viridis), goosegrass (Eleusine indica), johnsongrass (Sorghum halepense), ragweed (common ragweed, Ambrosia elation), barnyardgrass (Echinochloa crus-galli), sandbur (southern sandbur, Cenchrus echinatus), arrowleaf sida (Sida rhombifolia), ryegrass, Italian (Italian ryegrass, Lolium multiflorum), dayflower, (VA) (Virginia dayflower, Commelina virginica), field bindweed (Convolvulus arvensis), cocklebur (common cocklebur, Xanthium strumarium), morningglory (Ipomoea coccinea), nightshade (eastern black nightshade, Solanum ptycanthum), kochia (Kochia scoparia), nutsedge, yellow (yellow nutsedge, Cyperus esculentus) and beggarticks (hairy beggarticks, Bidens pilosa) were planted into a silt loam soil and treated preemergence with test chemicals formulated in a non-phytotoxic solvent mixture which included a surfactant. At the same time, plants selected from these crop and weed species were planted in pots containing a growing medium comprising spaghnum peat moss, vermiculite, wetting agent and starter nutrients and treated with postemergence applications of some of the test chemicals formulated in the same manner. Plants ranged in height from 2 to 18 cm for postemergence treatments (1- to 4-leaf stage).
(§2) Treated plants and controls were maintained in a greenhouse for 14 to 21 days, after which time all species were compared to controls and visually evaluated. Plant response ratings, summarized in Table E, are based on a scale of 0 to 100 where 0 is no effect and 100 is complete control. A dash (-) response means no test result.

[2] = system: nutsedge, yellow (yellow nutsedge, Cyperus esculentus); assay: Test E pre-/postemergence: nutsedge, yellow
Source text: as §1, §2

[3] = system: pigweed, palmer (palmer pigweed, Amaranthus palmeri); assay: Test E pre-/postemergence: pigweed, palmer
Source text: as §1, §2

[4] = system: ryegrass, Italian (Italian ryegrass, Lolium multiflorum); assay: Test E pre-/postemergence: ryegrass, Italian
Source text: as §1, §2

[5] = system: sandbur (southern sandbur, Cenchrus echinatus); assay: Test E pre-/postemergence: sandbur
Source text: as §1, §2

[6] = system: dayflower, (VA) (Virginia dayflower, Commelina virginica); assay: Test E pre-/postemergence: dayflower, (VA)
Source text: as §1, §2

soybean (Glycine max) = assay: Test E pre-/postemergence: soybean
Source text: as §1, §2

kochia (Kochia scoparia) = assay: Test E pre-/postemergence: kochia
Source text: as §1, §2

[7] = system: cocklebur (common cocklebur, Xanthium strumarium); assay: Test E pre-/postemergence: cocklebur
Source text: as §1, §2

[8] = system: field bindweed (Convolvulus arvensis); assay: Test E pre-/postemergence: field bindweed
Source text: as §1, §2

[9] = system: beggarticks (hairy beggarticks, Bidens pilosa); assay: Test E pre-/postemergence: beggarticks
Source text: as §1, §2

[10] = system: johnsongrass (Sorghum halepense); assay: Test E pre-/postemergence: johnsongrass
Source text: as §1, §2

corn (Zea mays) = assay: Test E pre-/postemergence: corn
Source text: as §1, §2

SMILES: FC(F)(F)COc1nn(-c2ccc(C(F)(F)F)cc2)nc1Cc1ccnc(C(F)(F)F)c1 [Compound 14, 4-[[5-(2,2,2-trifluoroethoxy)-2-[4-(trifluoromethyl)phenyl]-2H-1,2,3-triazol-4-yl]methyl]-2-(trifluoromethyl)pyridine]
- Plant response rating: Crabgrass, Large ([1]; 16 g ai/ha): 65
- Plant response rating: Crabgrass, Large ([1]; 31 g ai/ha): 75
- Plant response rating: Crabgrass, Large ([1]; 62 g ai/ha): 95
- Plant response rating: Crabgrass, Large ([1]; 125 g ai/ha): 100
- Plant response rating: Crabgrass, Large ([1]; 250 g ai/ha): 100
- Plant response rating: Nutsedge, Yellow ([2]; 16 g ai/ha): 0
- Plant response rating: Nutsedge, Yellow ([2]; 31 g ai/ha): 0
- Plant response rating: Nutsedge, Yellow ([2]; 62 g ai/ha): 0
- Plant response rating: Nutsedge, Yellow ([2]; 125 g ai/ha): 0
- Plant response rating: Nutsedge, Yellow ([2]; 250 g ai/ha): 15
- Plant response rating: Pigweed, Palmer ([3]; 16 g ai/ha): 75
- Plant response rating: Pigweed, Palmer ([3]; 31 g ai/ha): 100
- Plant response rating: Pigweed, Palmer ([3]; 62 g ai/ha): 100
- Plant response rating: Pigweed, Palmer ([3]; 125 g ai/ha): 100
- Plant response rating: Pigweed, Palmer ([3]; 250 g ai/ha): 100
- Plant response rating: Ryegrass, Italian ([4]; 16 g ai/ha): 0
- Plant response rating: Ryegrass, Italian ([4]; 31 g ai/ha): 40
- Plant response rating: Ryegrass, Italian ([4]; 62 g ai/ha): 85
- Plant response rating: Ryegrass, Italian ([4]; 125 g ai/ha): 95
- Plant response rating: Ryegrass, Italian ([4]; 250 g ai/ha): 100
- Plant response rating: Sandbur ([5]; 16 g ai/ha): 5
- Plant response rating: Sandbur ([5]; 31 g ai/ha): 5
- Plant response rating: Sandbur ([5]; 62 g ai/ha): 15
- Plant response rating: Sandbur ([5]; 125 g ai/ha): 50
- Plant response rating: Sandbur ([5]; 250 g ai/ha): 50
- Plant response rating: Dayflower, VA ([6]; 16 g ai/ha): 10
- Plant response rating: Dayflower, VA ([6]; 31 g ai/ha): 50
- Plant response rating: Dayflower, VA ([6]; 62 g ai/ha): 60
- Plant response rating: Dayflower, VA ([6]; 125 g ai/ha): 70
- Plant response rating: Dayflower, VA ([6]; 250 g ai/ha): 75
- Plant response rating: Soybean (soybean (Glycine max); 16 g ai/ha): 0
- Plant response rating: Soybean (soybean (Glycine max); 31 g ai/ha): 10
- Plant response rating: Soybean (soybean (Glycine max); 62 g ai/ha): 25
- Plant response rating: Soybean (soybean (Glycine max); 250 g ai/ha): 35
- Plant response rating: Kochia (kochia (Kochia scoparia); 16 g ai/ha): 20
- Plant response rating: Kochia (kochia (Kochia scoparia); 31 g ai/ha): 50
- Plant response rating: Kochia (kochia (Kochia scoparia); 62 g ai/ha): 90
- Plant response rating: Kochia (kochia (Kochia scoparia); 125 g ai/ha): 98
- Plant response rating: Kochia (kochia (Kochia scoparia); 250 g ai/ha): 100
- Plant response rating: Cocklebur ([7]; 16 g ai/ha): 0
- Plant response rating: Cocklebur ([7]; 31 g ai/ha): 0
- Plant response rating: Cocklebur ([7]; 62 g ai/ha): 0
- Plant response rating: Cocklebur ([7]; 125 g ai/ha): 50
- Plant response rating: Field Bindweed ([8]; 16 g ai/ha): 5
- Plant response rating: Field Bindweed ([8]; 31 g ai/ha): 20
- Plant response rating: Field Bindweed ([8]; 62 g ai/ha): 65
- Plant response rating: Field Bindweed ([8]; 125 g ai/ha): 65
- Plant response rating: Field Bindweed ([8]; 250 g ai/ha): 75
- Plant response rating: Beggarticks ([9]; 16 g ai/ha): 5
- Plant response rating: Beggarticks ([9]; 31 g ai/ha): 50
- Plant response rating: Beggarticks ([9]; 62 g ai/ha): 90
- Plant response rating: Beggarticks ([9]; 125 g ai/ha): 98
- Plant response rating: Beggarticks ([9]; 250 g ai/ha): 100
- Plant response rating: Johnsongrass ([10]; 16 g ai/ha): 10
- Plant response rating: Johnsongrass ([10]; 31 g ai/ha): 20
- Plant response rating: Johnsongrass ([10]; 62 g ai/ha): 70
- Plant response rating: Johnsongrass ([10]; 125 g ai/ha): 90
- Plant response rating: Johnsongrass ([10]; 250 g ai/ha): 95
- Plant response rating: Corn (corn (Zea mays); 16 g ai/ha): 0
- Plant response rating: Corn (corn (Zea mays); 31 g ai/ha): 0
- Plant response rating: Corn (corn (Zea mays); 62 g ai/ha): 0
- Plant response rating: Corn (corn (Zea mays); 125 g ai/ha): 0
- Plant response rating: Corn (corn (Zea mays); 250 g ai/ha): 0
